Experiments:
[1] = test system: CREB; experiment: CREB phosphorylation in hippocampal slices (immunoblotting, densitometry); assay type: cell-based, rat; details: inhibitor alone (50 μM PD98059 or 10 μM U0126, 30 minutes)
Method: (§1) Western blots panels A and B) of hippocampal slices treated with (A) 1 μM fisetin or (B) pretreated for 30 minutes with either 50 μM PD98059 (PD) or 10 μM U0126 (U) before the addition of 1 μM fisetin for 5 minutes, which blots were probed with the indicated antibodies.
(§2) Hippocampal slices in artificial cerebral spinal fluid (ACSF) were treated with either 1 μM fisetin for 5-20 minutes or pretreated for 30 minutes with either 50 μM PD98059 (PD) or 10 μM U0126 (J) before the addition of 1 μM fisetin for 5 minutes. Equal amounts of protein were analyzed by SDS-PAGE and immunoblotting with antibodies to phospho-ERK and phospho-CRFB along with antibodies to the unphosphorylated forms of the proteins. The average phosphoprotein signal from the blots was quantified by densitometry and normalized to total protein was plotted±S.D.

[2] = test system: ERK; experiment: ERK activation in PC12 cells (immunoblotting, anti-phospho ERK); assay type: cell-based; details: 50 μM PD98059, 30 minutes pretreatment, flavonoids 4 hours
Method: PC12 cells were treated with the optimal concentrations for differentiation of the different derivatives for 10 minutes to 6 hours; then the cells were scraped into sample buffer and analyzed by SDS-PAGE and immunoblotting with an antibody specific for phosphorylated ERKs (anti-phospho ERK) and an antibody that detects phosphorylated and unphosphorylated ERKs (anti-ERK),
ERK activation by the different flavonoids was blocked by pretreatment with PD98059, an inhibitor of MEK, the kinase which phosphorylates ERK. PC12 cells in N2 medium were untreated (control) or treated with 10 μM fisetin, 25 μM 3,3′-DHF, 25 μM 3,4′-DHF, 25 μM 3′,4′-DHF, 5 μM 3,3′,4′-THF, 25 μM 3,7,3′-THF, 25 μM 3,7,4′-THF or 10 μM 7,3′,4′-THF for 4 hours in the absence or presence of 50 μM PD98059 (30 minutes pretreatment). The cells then were scraped into sample buffer and analyzed by SDS-PAGE and immunoblotting with an antibody specific for phosphorylated ERKs (anti-phospho ERK) and an antibody that detects phosphorylated and unphosphorylated ERKs (anti-ERK). […]
PC12 cells in N2 medium were treated with the flavonoids as described in the text and, after the indicated time periods, the cells were solubilized in SDS sample buffer containing 0.1 mM Na3VO4 and 1 mM phenylmethylsulfonyl fluoride (PMSF), boiled for 5 minutes and either analyzed immediately or stored frozen at −70° C. […]

[3] = test system: CREB; experiment: CREB activation in primary cortical neuron cultures (immunoblotting); assay type: cell-based, rat; details: 50 μM PD98059 pretreatment, 10 μM fisetin 4 hours
Method: (§3) The average phosphoprotein signal from the blots was quantified by densitometry and normalized to total protein,
(§4) Five (5) day old cortical cultures were next pretreated with 50 μM of the MEK inhibitor, PD98059, before the addition of 10 μM fisetin for 4 hours.
(§5) Primary cultures of rat cortical neurons were prepared as previously described by Li et al. (Neuron, 19:453-63, 1997, herein incorporated by reference as to the method). Analysis of ERK and CREB phosphorylation was performed using SDS-polyacrylamide gel electrophoresis and immunoblotting as previously described by Sagara et al. (J. Neurochem., 90:1144-1155, 2004) using equal amounts of protein from 5 day old cortical cultures. Blots were scanned and quantified using NIH Image. Results were analyzed using an unpaired Student's t-test.

[4] = test system: CA1 area of rat hippocampal slices; experiment: Long-term potentiation in CA1 area of hippocampal slices; assay type: cell-based
[5] = test system: HT22 cells; experiment: Protection of HT22 cells from oxidative glutamate toxicity (MTT assay); assay type: cell-based, mouse; details: 5 mM glutamate ± 50 μM PD98059, 24 hours
Description: Fisetin is effective at protecting nerve cells from oxidative stress-induced death (Ishige et al., Free Radic. Biol. Med., 30:433-446, 2001). This Example illustrates the structure-activity relationship between fisetin derivatives and neuroprotection in a model of oxidative glutamate toxicity using mouse HT22 cells. This pathway of programmed cell death is initiated by the addition of glutamate to the extracellular medium. Glutamate inhibits the uptake of cystine which is required for glutathione (GSH) biosynthesis, resulting in the depletion of GSH in neurons (for review see Tan et al., Curr. Top. Med. Chem., 1:497-506, 2001). Subsequently, this decrease in cellular GSH results in the production of reactive oxygen species (ROS) by mitochondria. The ROS accumulation then causes Ca^+2 influx from the extracellular medium which leads to cell death.
HT22 cells were untreated (Ct) or treated with 10 μM fisetin, 25 μM 3,3′-DHF, 25 μM 3,4′-DHF, 2.5 μM 3′,4′-DHF, 2.5 μM 3,3′,4′-THF 25 μM 3,7,3′-THF, 25 μM 3,7,4′-THF or 10 μM 7,3′,4′-THF in the presence of 5 mM glutamate±50 μM PD98059. Twenty four (24) hours later cell survival was measured by the MTT assay.
HT22 cells were untreated (Ct) or treated with 10 μM fisetin, 25 μM 3,3′-DHF. […] Protection by all of the other flavonoids was unaffected by BSO.
Cell viability was determined by a modified version of the 3-(4,5-dimethylthiazol-2-yl)-2,5-diphenyl tetrazolium bromide (MTT) assay based on the standard procedure (Hansen et al., J. Immunol. Meth., 119:203-10, 1989). Briefly, cells were seeded onto 96-well microtiter plates at a density of 5×10^3 cells per well. The next day, the medium was replaced with DMEM supplemented with 7.5% DFCS and the cells were treated with the different flavonoids alone or in the presence of 5 mM glutamate. Twenty four hours later, the medium in each well was aspirated and replaced with fresh medium containing 2.5 μg/ml MTT. After 4 hours of incubation at 37° C., cells were solubilized with 100 μl of a solution containing 50% dimethylformamide and 20% SDS (pH 4.7). The absorbance at 570 nm was measured on the following day with a microplate reader (Molecular Devices). Results obtained from the MTT assay correlated directly with the extent of cell death as confirmed visually. Controls employing wells without cells were used to determine the effects of the agents upon the assay chemistry.

[6] = test system: ERK1 (p44); experiment: ERK1 (p44) phosphorylation in hippocampal slices (immunoblotting, densitometry); assay type: cell-based, rat; details: inhibitor alone (50 μM PD98059 or 10 μM U0126, 30 minutes)
Method: as §1, §2

[7] = test system: ERK2 (p42); experiment: ERK2 (p42) phosphorylation in hippocampal slices (immunoblotting, densitometry); assay type: cell-based, rat; details: inhibitor alone (50 μM PD98059 or 10 μM U0126, 30 minutes)
Method: as §1, §2

[8] = test system: ERK; experiment: ERK activation in primary cortical neuron cultures (immunoblotting); assay type: cell-based, rat; details: 50 μM PD98059 pretreatment, 10 μM fisetin 4 hours
Method: as §3, §4, §5

[9] = test system: ERK; details: Vanhoutte et al. 1999; English & Sweatt 1997; cited from earlier work
[10] = test system: cAMP; experiment: cAMP levels in hippocampal slices (Scintillation Proximity Assay); assay type: cell-based
Method: Hippocampal slices were treated with fisetin using the conditions where maximal stimulation of CREB phosphorylation and facilitation of LTP were observed. Briefly, hippocampal slices in ACSF were treated with 1 μM fisetin for 5 minutes (fisetin) or 3 μM rolipram for 30 minutes (rolipram) and then either immediately frozen or treated with […] forskolin for an additional 15 minutes (rolipram+forskolin; fisetin+forskolin) prior to freezing. Additional slices were treated only with 5 μM forskolin for 15 minutes (forskolin). Forskolin, an activator of adenylyl cyclase, and rolipram were used as positive controls. The levels of cAMP in the slices were measured using a Scintillation Proximity Assay and presented as pmole/mg protein±S.D.

[11] = test system: CREB; details: Vanhoutte et al. 1999; cited from earlier work
[12] = test system: Male C57Bl/6J mice; experiment: Object recognition task; assay type: in vivo; details: oral, dose not given; vs vehicle
Method: The effect of fisetin, 3,3′,4′-THF, and apigenin (5,7,4′-THF) on memory was tested in mice using an object recognition task (Ennaceur and Delacour, Behav. Brain Res., 31:47-59, 1988). Among the alternatives available for testing memory, this assay has proven very effective for measuring CREB-dependent functions (Prickaerts et al., Neurosci., 113:351-61, 2002; Bourtchouladze et al., Proc. Natl. Acad. Sci. USA, 100:10518-22, 2003). In this test, mice are presented with two identical objects during the training period which they explore for a fixed time period. To test for memory, mice are presented one day later with two different objects, one of which was presented previously during the training and is thus familiar to the mice, and the other that is novel. The better a mouse remembers the familiar object, the more time it will spend exploring the novel object. To test the effects of fisetin, 3,3′,4′-THF, or apigenin (5,7,4′-THF) in this memory task, the respective compound was administered orally to the mice before the start of the training period. Rolipram, a phosphodiesterase inhibitor that potentiates memory in this assay (Bourtchouladze et al., Proc. Natl. Acad. Sci. USA, 100:10518-22, 2003), requires intraperitoneal injection and was used as a positive control.
Male C57Bl/6J mice (Jackson Laboratories) were used and the testing was done by PsychoGenics (Tarrytown, N.Y.). All mice were acclimated to the colony room for at least 2 weeks prior to testing and were tested at an average age of 8 weeks. Mice were randomly assigned across treatment groups with 10 mice in each group. For each dose tested, a 10× solution of fisetin was prepared in 95% ethanol and then diluted with 4 volumes polyethylene glycol 660 hydroxystearate (Solut HS15 from BASF) and 5 volumes phosphate buffered saline. The vehicle was contained the identical ratios of ethanol, Solut HS15 and phosphate buffered saline. All were administered orally 60 minutes prior to training at a volume of 10 ml/kg body weight. Rolipram was dissolved in 10% DMSO and administered intraperitoneally 20 minutes prior to training. The test was performed as previously described by Bourtchouladze et al. (Proc. Natl. Acad. Sci. USA, 100:10518-22, 2003). Briefly, on Day 1 mice were habituated to a circular open field arena for one hour in cage groups of four. Twenty-four (24) hours later, individual mice were placed back in the same arena which now contained two identical objects for a 15 minutes training trial. […] Each animal's test trial was recorded and the first 10 minutes of each session were scored. […] Data were analyzed by a one-way ANOVA followed by post-hoc comparisons with Fisher's test. […]

COc1cccc(-c2cc(=O)c3ccccc3o2)c1N [PD98059, reference compound]
CREB phosphoprotein signal normalized to total protein [1]: 0.64±0.11
effect on ERK activation by the different flavonoids [2]: blocked
effect on activation of CREB by fisetin [3]: blocked
effect on fisetin-induced facilitation of LTP ([4]; PD98059 added 10 minutes prior to fisetin): blocked
effect on basal synaptic transmission ([4]; no tetanus): no effect
effect on the ability of fisetin or its derivatives to prevent cell death [5]: no significant effect
p44 phosphoprotein signal normalized to total protein [6]: 0.75±0.5
p42 phosphoprotein signal normalized to total protein [7]: 0.83±0.08
effect on activation of ERK by fisetin [8]: blocked

CN[C@H](CC(=O)O)C(=O)O [NMDA]
increase in ERK phosphorylation reported following treatment of slices [9]: ~2.5 fold

COc1ccc(C2CNC(=O)C2)cc1OC1CCCC1 (stereo not drawn) [rolipram, reference compound]
effect on cAMP levels by itself ([10]; 1 μM fisetin 5 minutes, 3 μM rolipram 30 minutes): modestly increased
potentiation of the effect of forskolin on cAMP levels ([10]; then 5 μM forskolin for 15 minutes): significantly potentiated

N[C@@H](CCC(=O)O)C(=O)O [glutamate]
increase in CREB phosphorylation reported following treatment of slices [11]: ~2.5 fold
increase in ERK phosphorylation reported following treatment of slices [9]: 1.5-2 fold

O=c1cc(-c2ccc(O)cc2)oc2cc(O)cc(O)c12 [apigenin, reference compound]
object recognition [12]: did not exhibit significantly better object recognition

From patent publication US7897637B2, “Methods of using flavonoids to enhance memory” (The Salk Institute for Biological Studies, priority 2006, dated 2011)
